Our source for the IC50 values is US20210198277A1, “AMINE-SUBSTITUTED ARYL OR HETEROARYL COMPOUNDS” (Epizyme, Inc., priority 2016, published 2021).

In this experiment the target is T1, EHMT2 (Homo sapiens, UniProt Q96KQ7).
T1 construct: host or cells: MDA-MB-231
T1 sequence (Q96KQ7 1-1210): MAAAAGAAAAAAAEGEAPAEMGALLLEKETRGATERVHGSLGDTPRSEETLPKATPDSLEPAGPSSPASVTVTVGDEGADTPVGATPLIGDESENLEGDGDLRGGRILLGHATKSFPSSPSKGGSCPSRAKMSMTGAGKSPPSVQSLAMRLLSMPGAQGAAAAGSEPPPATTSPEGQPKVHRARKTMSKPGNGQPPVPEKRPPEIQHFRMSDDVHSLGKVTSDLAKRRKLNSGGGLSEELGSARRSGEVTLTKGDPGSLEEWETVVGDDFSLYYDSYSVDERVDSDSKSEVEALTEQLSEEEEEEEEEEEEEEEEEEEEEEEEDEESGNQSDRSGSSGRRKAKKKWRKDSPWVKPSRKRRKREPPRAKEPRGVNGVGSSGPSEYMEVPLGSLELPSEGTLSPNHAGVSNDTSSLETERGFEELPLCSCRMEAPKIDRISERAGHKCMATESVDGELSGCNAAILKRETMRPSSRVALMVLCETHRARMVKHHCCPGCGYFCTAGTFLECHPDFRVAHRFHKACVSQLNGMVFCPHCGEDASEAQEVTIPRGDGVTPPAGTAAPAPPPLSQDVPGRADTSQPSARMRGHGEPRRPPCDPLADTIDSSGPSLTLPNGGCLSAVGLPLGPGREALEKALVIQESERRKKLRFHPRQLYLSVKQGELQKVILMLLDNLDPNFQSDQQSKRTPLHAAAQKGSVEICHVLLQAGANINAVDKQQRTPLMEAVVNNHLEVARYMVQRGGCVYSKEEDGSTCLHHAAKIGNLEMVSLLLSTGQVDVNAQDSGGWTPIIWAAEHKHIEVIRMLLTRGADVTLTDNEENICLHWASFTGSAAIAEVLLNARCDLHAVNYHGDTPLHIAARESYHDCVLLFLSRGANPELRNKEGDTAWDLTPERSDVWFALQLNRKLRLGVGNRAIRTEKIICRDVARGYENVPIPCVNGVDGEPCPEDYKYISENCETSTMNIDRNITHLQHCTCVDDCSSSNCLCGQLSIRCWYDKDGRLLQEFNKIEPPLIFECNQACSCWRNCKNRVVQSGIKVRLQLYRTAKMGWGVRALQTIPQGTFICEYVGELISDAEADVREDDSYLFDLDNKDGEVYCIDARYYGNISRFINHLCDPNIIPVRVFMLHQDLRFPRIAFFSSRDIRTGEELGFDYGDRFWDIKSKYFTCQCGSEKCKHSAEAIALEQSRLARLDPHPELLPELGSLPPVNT
As to the kind of experiment: MDA-MB-231 H3K9me2 in-cell Western assay (EHMT2 ICW). The format is cell-based. Conditions: Table VI; read-out: EHMT2 ICW IC50. An outline of the steps:
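Steps: compound added to plate, MDA-MB-231 cells plated in RPMI with 10% FBS, incubation for 48 h at 37 °C, fixation, overnight anti-H3K9me2 staining at 4 °C, and donkey anti-mouse 800CW with DRAQ5 counterstain. IC50 values come from percent inhibition fitted with a four-parameter model.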

With `CNc1cc(C)nc(Nc2ccc(OC)c(OCC(O)CN3CCCC3)c2)n1` (stereo in doubt) [Compound 906, (2S)-1-(2-methoxy-5-[[4-methyl-6-(methylamino)pyrimidin-2-yl]amino]phenoxy)-3-(pyrrolidin-1-yl)propan-2-ol], the IC50 fell in the range of 0.1 to 1 µM.

On to `COc1cnc(Nc2cccc3[nH]nnc23)cc1OCCCN1CCCC1` [Compound 619], for which the IC50 is over 10 µM.

Regarding `CCN1CC(COc2cc(Nc3cccn4cnnc34)ncc2OC)C1` [Compound 620], the IC50 is over 10 µM.

In the case of `CNc1cc(C)nc(Nc2c[nH]c(=O)c(OCCCN3CCCC3)c2)n1` [Compound 621], the half-maximal inhibitory concentration (IC50) is over 10 µM.

As for `CNc1cc(C)nc(Nc2cc(OCCCN3CCCC3)c3nncn3c2)n1` [Compound 622], the IC50 is over 10 µM.

Take `CNc1cc(C)nc(Nc2cc(OCCCN3CCCC3)c3ncnn3c2)n1` [Compound 623]: the IC50 was in the range of 1 to 10 µM.

Turning to `CNc1cc(C)nc(Nc2cc(OCCCN3CCCC3)c3[nH]nnc3c2)n1` [Compound 624], the half-inhibitory concentration (IC50) was in the range of 1 to 10 µM.

For the compound `COc1cc2c(C3CCN(C)CC3)cc(N3CCCC3)nc2cc1OCCCN1CCCC1` [Compound 625], the IC50 lay in the range of 0.1 to 1 µM.

As to `COc1cc2c(C3CCN([C@H]4CCOC4)CC3)cc(C)nc2cc1OCCCN1CCCC1` [Compound 864], the 50% inhibitory concentration (IC50) lay in the range of 0.1 to 1 µM.

For `CCNc1cc(C2CCOCC2)c2cc(OC)c(OCCCN3CCCC3)cc2n1` [Compound 865], the half-maximal inhibitory concentration (IC50) is 0.1 to 1 µM.

Consider `CNc1cc(C2CCN([C@@H]3CCOC3)CC2)c2cc(OC)c(OCCCN3CCCC3)cc2n1` [Compound 866], for which the concentration for half-maximal inhibition (IC50) was under 0.1 µM.

Consider `CNc1cc(C2CCN([C@H]3CCOC3)CC2)c2cc(OC)c(OCCCN3CCCC3)cc2n1` [Compound 867], for which the IC50 is under 0.1 µM.

For the compound `COc1ccc(Nc2nc(C)cc(C3CCOCC3)n2)cc1OCCCN1CCCC1` [Compound 870], the IC50 was over 10 µM.

Consider `CNc1cc(C)nc(Nc2ccc(OC)c(C(=O)NCc3ccccc3)c2)n1` [Compound 871], for which the IC50 was over 10 µM.

`CNc1cc(C)nc(Nc2ccc(OC)c(C(=O)NC3CCN(C)CC3)c2)n1` [Compound 873]: the half-maximal inhibitory concentration (IC50) was over 10 µM.

Regarding `CNc1cc(C)nc(Nc2ccc(CNC(=O)c3ccccc3)c(OC)c2)n1` [Compound 876], the IC50 is over 10 µM.

In the case of `CNc1cc(C)nc(Nc2ccc(C(=O)NCc3ccccc3)c(OC)c2)n1` [Compound 877], the half-maximal inhibitory concentration (IC50) is over 10 µM.

As for `CNc1cc(C)nc(Nc2cnc(OC)c(OC[C@@H](O)CN3CCCC3)c2)n1` [Compound 881], the IC50 was in the range of 0.1 to 1 µM.

Consider `CNc1cc(C)nc(Nc2cnc(OC)c(OC[C@H](O)CN3CCCC3)c2)n1` [Compound 882], for which the IC50 is 1 to 10 µM.

On to `COc1ncc(Nc2nc(C)cc(NCC3COC3)n2)cc1OC[C@@H](O)CN1CCCC1` [Compound 883], for which the IC50 is over 10 µM.

`COc1ncc(Nc2nc(C)cc(NCC3COC3)n2)cc1OC[C@H](O)CN1CCCC1` [Compound 884]: the concentration for half-maximal inhibition (IC50) is over 10 µM.

Consider `CNc1cc(C)nc(Nc2cc(OC[C@@H](O)CN3CCCC3)c(OC)cn2)n1` [Compound 885], for which the 50% inhibitory concentration (IC50) is over 10 µM.

For the compound `CNc1cc(C)nc(Nc2cc(OC[C@H](O)CN3CCCC3)c(OC)cn2)n1` [Compound 886], the IC50 was over 10 µM.

Take `CNC(=O)CCNc1cc(C)nc(Nc2cnc(OC)c(OCCCN3CCCC3)c2)n1` [Compound 887]: the concentration for half-maximal inhibition (IC50) lay within 1 to 10 µM.

As for `CNC(=O)N1CC(CNc2cc(C)nc(Nc3cnc(OC)c(OCCCN4CCCC4)c3)n2)C1` [Compound 888], the half-maximal inhibitory concentration (IC50) was over 10 µM.

Consider `CNc1cc(C)nc(Nc2ccc(OC)c(OCCCc3nc(Cl)c[nH]3)c2)n1` [Compound 890], for which the concentration for half-maximal inhibition (IC50) is over 10 µM.

For `CNc1cc(C)nc(Nc2ccc(OC)c(OCCCc3nc(Cl)cn3C)c2)n1` [Compound 891], the half-maximal inhibitory concentration (IC50) is over 10 µM.

Consider `CNS(=O)(=O)CCNc1cc(C)nc(Nc2ccc(OC)c(OCCCN3CCCC3)c2)n1` [Compound 892], for which the IC50 lay within 1 to 10 µM.

Take `COc1ccc(Nc2nc(C)cc(NCCS(=O)(=O)N(C)C)n2)cc1OCCCN1CCCC1` [Compound 893]: the IC50 is 0.1 to 1 µM.

What is called IC50 is the concentration that inhibits the measured activity by half.
